For 26 compounds, IC50 results are on record in US10822337B2, “TGF-β inhibitorC” (Rigel Pharmaceuticals, Inc., priority 2015, dated 2020).

In assay [1] the test system is GDF8 signaling (GDF pSMAD, MPC11). As to the kind of experiment: AlphaScreen SureFire SMAD3 (p-Ser423/425) assay, inhibition of GDF8 signaling. The following applies: Mus musculus, MPC-11, p-SMAD-3 (Ser423/425) in cell lysate after GDF8 stimulation. The format is cell-based. The text has this:
(§1) Example 2: AlphaScreen® SureFire® SMAD3 (p-Ser423/425) Assay
(§2) The p-SMAD-3 (Ser423/425) SureFire® assay has been designed to measure the phosphorylation of endogenous cellular p-SMAD-3 (Ser423/425) in cell lysates and is a system for the screening of both modulators of receptor activation (e.g. agonists and antagonists) as well as agents acting intracellularly, such as small molecule inhibitors of upstream events. The assay will measure p-SMAD-3 (Ser423/425) activation by either cloned or endogenous receptors, and can be applied to primary cells.
(§3) 1× Lysis buffer: 1 ml of 5× Lysis buffer was diluted with 4 ml of sterile water. After dilution, excess 1× Lysis buffer can be frozen and thawed up to 5 times without loss in activity.
(§4) P-SMAD-3 (Ser423/425) SureFire® Assay Protocols
(§5) Step A: Preparation of Buffers
(§6) Activation buffer: The buffer was warmed slowly to 37° C. and gently mixed to re-suspend. Activation buffer can be stored at room temperature with no loss in activity.
(§7) Reaction buffer: The buffer was kept at 4° C. while in use.
(§8) AlphaScreen® Protein A IgG Kit: The kit was stored at 4° C. in the dark.
(§9) Reaction buffer+Activation buffer+AlphaScreen® Acceptor beads: Reaction buffer (40 parts), Activation Buffer (10 parts) and Acceptor beads (1 part) were mixed and the mixture was stored at room temperature and used the same day. Mixture was added to 384-well plates; excess mixturewas discarded.
(§10) Dilution buffer+AlphaScreen® Donor beads: Dilution buffer (20 parts) and Donor beads (1 part) were mixed and the mixture was stored at room temperature and used the same day. Excess mixture was discarded.
(§11) Assay control samples: After reconstitution in 250 μl of water, lysates were at −20° C. in single use aliquots.
(§12) Step B: Preparation of Samples and Cells
(§13) 96-well Assay Protocol for 293FT and RMS13 adherent cells can be carried out manually or in high throughput with liquid handling robots.
(§14) The cells (80 μL of cells for 96 well plates) were plated in collagen coated tissue culture plates in RPMI or FreeStyle medium (Invitrogen) and incubated overnight. For manual analysis, 6 plates for GDF8, 6 plates for TGFβ, and optionally 6 plates for Alk5ca(ALKS constitutively active) were used.
(§15) The compound dilution plates were prepared as follows: 12 μL of DMSO was transferred into first column of 96-well plate, and 16 μL of DMSO was transferred into columns 2-12 of the 96-well plate. 12 μL of compound solution was transferred into first column of the DMSO-containing 96-well plate. Three-fold dilution was performed up to column 10 of the DMSO-containing 96-well plate.
(§16) Step C: Treatment and Analysis
(§17) The plate containing cells were treated with compounds for about 10 minutes, and then ligand was added. GDF8 or TGFb was added to plates to stimulate. 293FL cells were stimulatedfor 90 minutes at 37° C.; and RMS13 cells were stimulated for 60 minutes at 37° C. The medium was then removed from the cells, and 1× Lysis Buffer (about 25 μL) was added and the plate was gently agitated on plate shaker for 5-10 minutes.
(§18) The lysate (5 μL) was then placed into 384-well shallow plates avoiding the generation of bubbles. To this, the Reaction Buffer+Activation Buffer+AlphaScreen® Acceptor beadsmixture (5 μL) was added. The plate was sealed with adhesive cover and shielded from light (e.g., with metal foil), and agitated gently on plate shaker for 2 hours at room temperature.
(§19) Dilution buffer+AlphaScreen® Donor beads (2 μL) was then added, and the plate was intubated on the plate shaker for an additional 1½ hours. After completion, the plate was read on Synergy-4 or Enspire plate reader, using AlphaScreen® pSMAD3® settings.
(§20) Representative results for inhibition of GDF8 (data=GDF pSMAD (MPC11) (μM)) and TGF-β (data=TGF-β pSMAD (MPC-11) (μM)) signaling are shown in Table 1: […]

For assay [2], the system named is TGF-β signaling (TGF-β pSMAD, MPC-11). As to the kind of experiment: AlphaScreen SureFire SMAD3 (p-Ser423/425) assay, inhibition of TGF-β signaling. Format: cell-based. The following applies: Mus musculus, p-SMAD-3 (Ser423/425) in cell lysate after TGF-β stimulation.
Source text: as §1, §2, §3, §4, §5, §6, §7, §8, §9, §10, §11, §12, §13, §14, §15, §16, §17, §18, §19, §20
In general terms: Bead proximity is the source of the signal in Alpha formats.

Regarding `Fc1ccc(F)c(-c2nn3c(c2-c2ccc4[nH]ncc4c2)CCC3)c1` [Compound 1, 5-(2-(2,5-difluorophenyl)-5,6-dihydro-4H-pyrrolo[1,2-b]pyrazol-3-yl)-1H-indazole], the IC50 (commonly the midpoint of a concentration-inhibition curve) in assay [1] turned out to be 592 nM; in assay [2], 2030 nM.
The like results for `Cc1cc(-c2nn3c(c2-c2ccc4[nH]ncc4c2)CCC3)ccc1F` [Compound 2, 5-(2-(4-Fluoro-3-methylphenyl)-5,6-dihydro-4H-pyrrolo[1,2-b]pyrazol-3-yl)-1H-indazole] were, in that order, 45 nM and 140 nM.
The like results for `Cc1cc(-c2nn3c(c2-c2ccc4cn[nH]c4c2)CCC3)ccc1F` [Compound 3, 6-(2-(4-Fluoro-3-methylphenyl)-5,6-dihydro-4H-pyrrolo[1,2-b]pyrazol-3-yl)-1H-indazole] were, in that order, 64.1 nM and 231 nM.
In the case of `Cc1cc(-c2nn3c(c2-c2ccnc4[nH]ccc24)CCC3)ccc1F` [Compound 4, 4-(2-(4-Fluoro-3-methylphenyl)-5,6-dihydro-4H-pyrrolo[1,2-b]pyrazol-3-yl)-1H-pyrrolo[2,3-b]pyridine], the IC50 was 604 nM in assay [1] and 1050 nM in assay [2].
The like results for `Fc1ccc(-c2nn3c(c2-c2ccc4[nH]ncc4c2)CCC3)cc1` [Compound 5, 5-(2-(4-Fluorophenyl)-5,6-dihydro-4H-pyrrolo[1,2-b]pyrazol-3-yl)-1H-indazole] were, in that order, 129 nM and 500 nM.
Turning to `Fc1ccc(-c2nn3c(c2-c2ccc4cn[nH]c4c2)CCC3)cc1` [Compound 6, 6-(2-(4-Fluorophenyl)-5,6-dihydro-4H-pyrrolo[1,2-b]pyrazol-3-yl)-1H-indazole], the IC50 amounted to 200 nM in assay [1] and 1040 nM in assay [2].
Regarding `Cc1cccc(-c2nn3c(c2-c2ccc4[nH]ncc4c2)CCC3)c1` [Compound 7, 5-(2-(m-Tolyl)-5,6-dihydro-4H-pyrrolo[1,2-b]pyrazol-3-yl)-1H-indazole], the figures for the IC50 in assay [1] and in assay [2] were 15.1 nM and 39.7 nM, respectively.
Consider `Cc1cccc(-c2nn3c(c2-c2ccc4cn[nH]c4c2)CCC3)c1` [Compound 8, 6-(2-(m-Tolyl)-5,6-dihydro-4H-pyrrolo[1,2-b]pyrazol-3-yl)-1H-indazole], for which the IC50 in assay [1] came to 21.3 nM; in assay [2] it was 79.4 nM.
The corresponding values for `Cc1cc(-c2nn3c(c2-c2ccc4nc[nH]c4c2)CCC3)ccc1F` [Compound 9, 6-(2-(4-Fluoro-3-methylphenyl)-5,6-dihydro-4H-pyrrolo[1,2-b]pyrazol-3-yl)-1H-benzo[d]imidazole] are 51.5 nM and 152 nM.
The like results for `Cc1cccc(-c2nn3c(c2-c2ccc4c(cnn4C)c2)CCC3)c1` [Compound 10, 1-Methyl-5-(2-(m-tolyl)-5,6-dihydro-4H-pyrrolo[1,2-b]pyrazol-3-yl)-1H-indazole] were, in that order, 643 nM and 2590 nM.
For the compound `Cc1cccc(-c2nn3c(c2-c2ccc4ncsc4c2)CCC3)c1` [Compound 12, 6-(2-(m-Tolyl)-5,6-dihydro-4H-pyrrolo[1,2-b]pyrazol-3-yl)benzo[d]thiazole], the IC50 in assay [1] worked out at 46.8 nM; in assay [2], 117 nM.
Consider `Cn1cnc2ccc(-c3c(-c4ccc(F)cc4)nn4c3CCC4)cc21` [Compound 13, 6-(2-(4-Fluorophenyl)-5,6-dihydro-4H-pyrrolo[1,2-b]pyrazol-3-yl)-1-methyl-1H-benzo[d]imidazole], for which the IC50 in assay [1] stood at 79.6 nM; in assay [2], 182 nM.
The like results for `Fc1ccc(-c2nn3c(c2-c2ccc4ncsc4c2)CCC3)cc1` [Compound 14, 6-(2-(4-Fluorophenyl)-5,6-dihydro-4H-pyrrolo[1,2-b]pyrazol-3-yl)benzo[d]thiazole] were, in that order, 295 nM and 976 nM.
Regarding `Cc1cc(-c2nn3c(c2-c2ccc4c(cnn4C)c2)CCC3)ccc1F` [Compound 15, 5-(2-(4-Fluoro-3-methylphenyl)-5,6-dihydro-4H-pyrrolo[1,2-b]pyrazol-3-yl)-1-methyl-1H-indazole], the IC50 is 987 nM in assay [1] and 2740 nM in assay [2].
The corresponding values for `Cc1cc(-c2nn3c(c2-c2ccc4ncn(C)c4c2)CCC3)ccc1F` [Compound 16, 6-(2-(4-Fluoro-3-methylphenyl)-5,6-dihydro-4H-pyrrolo[1,2-b]pyrazol-3-yl)-1-methyl-1H-benzo[d]imidazole] are 65 nM and 132 nM.
The like results for `Cc1cc(-c2nn3c(c2-c2ccc4ncsc4c2)CCC3)ccc1F` [Compound 17, 6-(2-(4-Fluoro-3-methylphenyl)-5,6-dihydro-4H-pyrrolo[1,2-b]pyrazol-3-yl)benzo[d]thiazole] were, in that order, 122 nM and 375 nM.
Turning to `Cc1cccc(-c2nn3c(c2-c2ccc4nccn4c2)CCC3)c1` [Compound 18, 6-(2-(m-Tolyl)-5,6-dihydro-4H-pyrrolo[1,2-b]pyrazol-3-yl)imidazo[1,2-a]pyridine], the IC50 in assay [1] is 65 nM; in assay [2], 369 nM.
In the case of `Fc1ccc(-c2nn3c(c2-c2ccc4nccn4c2)CCC3)cc1` [Compound 19, 6-(2-(4-Fluorophenyl)-5,6-dihydro-4H-pyrrolo[1,2-b]pyrazol-3-yl)imidazo[1,2-a]pyridine], the concentration for half-maximal inhibition (IC50) in assay [1] came out at 309 nM; in assay [2], 1770 nM.
The corresponding values for `Cc1cc(-c2nn3c(c2-c2ccc4nccn4c2)CCC3)ccc1F` [Compound 20, 6-(2-(4-Fluoro-3-methylphenyl)-5,6-dihydro-4H-pyrrolo[1,2-b]pyrazol-3-yl)imidazo[1,2-a]pyridine] are 121 nM and 366 nM.
The corresponding values for `COc1cccc(-c2nn3c(c2-c2ccc4nccn4c2)CCC3)c1` [Compound 21, 6-(2-(3-Methoxyphenyl)-5,6-dihydro-4H-pyrrolo[1,2-b]pyrazol-3-yl)imidazo[1,2-a]pyridine] are 310 nM and 1040 nM.
On to `Clc1cccc(-c2nn3c(c2-c2ccc4[nH]ncc4c2)CCC3)c1` [Compound 22, 5-(2-(3-Chlorophenyl)-5,6-dihydro-4H-pyrrolo[1,2-b]pyrazol-3-yl)-1H-indazole], for which the IC50 in assay [1] is 92.5 nM; in assay [2] it was 183 nM.
In the case of `Clc1cccc(-c2nn3c(c2-c2ccc4cn[nH]c4c2)CCC3)c1` [Compound 23, 6-(2-(3-Chlorophenyl)-5,6-dihydro-4H-pyrrolo[1,2-b]pyrazol-3-yl)-1H-indazole], the IC50 in assay [1] came out at 122 nM; in assay [2], 240 nM.
The like results for `Clc1cccc(-c2nn3c(c2-c2ccc4nccn4c2)CCC3)c1` [Compound 25, 6-(2-(3-Chlorophenyl)-5,6-dihydro-4H-pyrrolo[1,2-b]pyrazol-3-yl)imidazo[1,2-a]pyridine] were, in that order, 69.5 nM and 140 nM.
The like results for `Clc1cccc(-c2nn3c(c2-c2ccc4ncsc4c2)CCC3)c1` [Compound 26, 6-(2-(3-Chlorophenyl)-5,6-dihydro-4H-pyrrolo[1,2-b]pyrazol-3-yl)benzo[d]thiazole] were, in that order, 67 nM and 133 nM.
The corresponding values for `COc1cccc(-c2nn3c(c2-c2ccc4[nH]ncc4c2)CCC3)c1` [Compound 27, 5-(2-(3-Methoxyphenyl)-5,6-dihydro-4H-pyrrolo[1,2-b]pyrazol-3-yl)-1H-indazole] are 206 nM and 847 nM.
On to `COc1ccc(-c2nn3c(c2-c2ccc4ncccc4c2)CCC3)cc1` [Compound 101, 6-(2-(4-Methoxyphenyl)-5,6-dihydro-4H-pyrrolo[1,2-b]pyrazol-3-yl)quinoline], for which the IC50 in assay [1] was 2450 nM.
